This assay concerns the target human PCSK9 (Homo sapiens, UniProt Q8NBP7). Description: PCSK9 ligand binding TR-FRET assay (interference with binding of human PCSK9 to human LDLR). Conditions: for Max % inhibition: PCSK9 FRET assay, efficacy (Amax), 100% = 1 uM unlabeled human PCSK9, 0% = DMSO; for IC50: TR-FRET, human PCSK9 Alexa Fluor 647 / human LDLR extracellular domain-Europium Kryptate, read-out: PCSK9 FRET Assay IC50. Put shortly:
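Threefold compound dilutions were pre-incubated 30 min with PCSK9, after which 4 nM Europium Kryptate-tagged human LDLR ectodomain was added for a further 2 h.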
In general terms: In TR-FRET formats the signal depends on donor and acceptor labels being close together.

Each structure is given as a SMILES string.

This passage reports Max % inhibition and IC50 results from patent US20230089867A1, “CYCLIC PENTAMER COMPOUNDS AS PROPROTEIN CONVERTASE SUBTILISIN/KEXIN TYPE 9 (PCSK9) INHIBITORS FOR THE TREATMENT OF METABOLIC DISORDER” (Novartis AG, priority 2018, published 2023).

human PCSK9, sequence (Q8NBP7 153-692): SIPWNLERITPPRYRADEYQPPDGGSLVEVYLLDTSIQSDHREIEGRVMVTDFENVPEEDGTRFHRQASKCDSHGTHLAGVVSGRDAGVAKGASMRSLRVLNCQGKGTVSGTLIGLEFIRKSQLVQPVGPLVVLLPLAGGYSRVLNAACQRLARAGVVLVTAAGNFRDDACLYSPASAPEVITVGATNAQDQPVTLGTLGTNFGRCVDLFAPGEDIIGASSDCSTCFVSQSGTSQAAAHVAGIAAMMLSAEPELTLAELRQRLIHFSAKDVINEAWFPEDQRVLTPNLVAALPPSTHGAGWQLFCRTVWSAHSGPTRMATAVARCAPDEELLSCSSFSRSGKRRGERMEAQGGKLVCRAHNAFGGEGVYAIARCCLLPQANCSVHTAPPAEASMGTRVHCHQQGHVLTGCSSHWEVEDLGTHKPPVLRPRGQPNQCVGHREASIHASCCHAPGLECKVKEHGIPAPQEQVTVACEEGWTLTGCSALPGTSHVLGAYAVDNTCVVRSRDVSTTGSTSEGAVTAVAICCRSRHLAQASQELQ
human PCSK9, sequence (Q8NBP7 31-152 partner limits assumed): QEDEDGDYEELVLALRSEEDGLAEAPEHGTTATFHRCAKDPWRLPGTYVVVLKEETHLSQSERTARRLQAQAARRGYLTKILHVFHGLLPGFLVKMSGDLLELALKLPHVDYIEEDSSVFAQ

For `C[C@H]1CNC(=O)C[C@H](Cc2ccc(Cl)cc2)N(C)C(=O)[C@H](CC(=O)N(C)C)NC(=O)[C@H](C)N(Cc2ccc(Cl)cc2Oc2ccc(-c3cnc(CN(C)C)n3C)cc2)C(=O)C[C@@H](Cc2ccccc2)C(=O)N1C` [Compound 160, 2-((2S,5S,8S,13S,16R)-16-benzyl-1-(4-chloro-2-(4-(2-((dimethylamino)methyl)-1-methyl-1H-imidazol-5-yl)phenoxy)benzyl)-8-(4-chlorobenzyl)-2,7,13,14-tetramethyl-3,6,10,15,18-pentaoxo-1,4,7,11,14-pentaazacyclooctadecan-5-yl)-N,N-dimethylacetamide], the Max % inhibition was determined as 91.45% and the IC50 (in general, the concentration that inhibits the measured activity by half) amounted to 7.6 nM.
Turning to `C=Cc1ncc(-c2ccc(Oc3cc(Cl)ccc3CN3C(=O)C[C@@H](Cc4ccccc4)C(=O)N(C)[C@@H](C)CNC(=O)C[C@H](Cc4ccc(Cl)cc4)N(C)C(=O)[C@H](COC)NC(=O)[C@@H]3C)cc2)n1C` [Compound 282, (2S,5S,8S,13S,16R)-16-benzyl-1-(4-chloro-2-(4-(1-methyl-2-vinyl-1H-imidazol-5-yl)phenoxy)benzyl)-8-(4-chlorobenzyl)-5-(methoxymethyl)-2,7,13,14-tetramethyl-1,4,7,11,14-pentaazacyclooctadecane-3,6,10,15,18-pentaone], the Max % inhibition turned out to be 60.78% and the IC50 is 6.1 nM.
Take `CCc1ccc(CN2C(=O)C[C@@H](Cc3ccccc3)C(=O)N(C)[C@H]3CCCC[C@@H]3NC(=O)C[C@H](Cc3ccc(Cl)cc3)N(C)C(=O)[C@H](COC)NC(=O)[C@@H]2C)c(Oc2ccc(-c3cnc(CN4CC5(COC5)C4)n3C)cc2)c1` [Compound 23, (4S,7S,10S,14R,16aS,20aS)-11-(2-(4-(2-(2-oxa-6-azaspiro[3.3]heptan-6-ylmethyl)-1-methyl-1H-imidazol-5-yl)phenoxy)-4-ethylbenzyl)-14-benzyl-4-(4-chlorobenzyl)-7-(methoxymethyl)-5,10,16-trimethylhexadecahydrobenzo[l][1,4,7,11,14]pentaazacyclooctadecine-2,6,9,12,15(3H)-pentaone]: the Max % inhibition is given as 96.76% and the IC50 was determined as 2.2 nM.
As to `COC[C@@H]1NC(=O)[C@H](CCCNC(=O)OC(C)(C)C)N(Cc2ccc(Cl)cc2Oc2ccc(-c3cnc(CN4CCCC4)n3C)cc2)C(=O)C[C@@H](Cc2ccccc2)C(=O)N(C)[C@H]2CCCC[C@@H]2NC(=O)C[C@H](Cc2ccc(Cl)cc2)N(C)C1=O` [Compound 191, tert-butyl (3-((4S,7S,10S,14R,16aS,20aS)-14-benzyl-11-(4-chloro-2-(4-(1-methyl-2-(pyrrolidin-1-ylmethyl)-1H-imidazol-5-yl)phenoxy)benzyl)-4-(4-chlorobenzyl)-7-(methoxymethyl)-5,16-dimethyl-2,6,9,12,15-pentaoxodocosahydrobenzo[l][1,4,7,11,14]pentaazacyclooctadecin-10-yl)propyl)carbamate], the Max % inhibition worked out at 94.20% and the half-maximal inhibitory concentration (IC50) worked out at 2.1 nM.
Take `COC[C@@H]1NC(=O)[C@H](C)N(Cc2ccc(Oc3ccc(-c4cnc(CN(C)C)n4C)cc3)cc2F)C(=O)C[C@@H](Cc2ccccc2)C(=O)N(C)C2CCCCC2NC(=O)C[C@H](Cc2ccc(Cl)cc2)N(C)C1=O` (stereo in doubt) [Compound 15, (4S,7S,10S,14R,16aS,20aS)-14-benzyl-4-(4-chlorobenzyl)-11-(4-(4-(2-((dimethylamino)methyl)-1-methyl-1H-imidazol-5-yl)phenoxy)-2-fluorobenzyl)-7-(methoxymethyl)-5,10,16-trimethylhexadecahydrobenzo[l][1,4,7,11,14]pentaazacyclooctadecine-2,6,9,12,15(3H)-pentaone]: the Max % inhibition stood at 48.77% and the IC50 turned out to be 331 nM.
For `C=CC[C@@H]1CC(=O)N(Cc2ccc(C)cc2Oc2ccc(-c3cnc(CN(C)C)n3C)cc2)[C@@H](C)C(=O)N[C@@H](COC)C(=O)N(C)[C@@H](Cc2ccc(Cl)cc2)CC(=O)N[C@@H](C)[C@H](C)N(C)C1=O` [Compound 107, (2S,5S,8S,12S,13S,16R)-16-allyl-8-(4-chlorobenzyl)-1-(2-(4-(2-((dimethylamino)methyl)-1-methyl-1H-imidazol-5-yl)phenoxy)-4-methylbenzyl)-5-(methoxymethyl)-2,7,12,13,14-pentamethyl-1,4,7,11,14-pentaazacyclooctadecane-3,6,10,15,18-pentaone] the same measures were 100.41% and 1.7 nM.
In the case of `COC[C@@H]1NC(=O)[C@H](C)N(Cc2ccc(Cl)cc2Oc2ccc(-c3cnc(CN(C)C)n3C)cc2)C(=O)C[C@@H](Cc2c(F)c(F)cc(F)c2F)C(=O)N(C)[C@@H](C)CNC(=O)C[C@H](Cc2ccc(Cl)cc2)N(C)C1=O` [Compound 246, (2S,5S,8S,13S,16R)-1-(4-chloro-2-(4-(2-((dimethylamino)methyl)-1-methyl-1H-imidazol-5-yl)phenoxy)benzyl)-8-(4-chlorobenzyl)-5-(methoxymethyl)-2,7,13,14-tetramethyl-16-(2,3,5,6-tetrafluorobenzyl)-1,4,7,11,14-pentaazacyclooctadecane-3,6,10,15,18-pentaone], the Max % inhibition was 103.97% and the IC50 amounted to 2.4 nM.
For `CCCC#Cc1ncc(-c2ccc(Oc3cc(Cl)ccc3CN3C(=O)C[C@@H](Cc4ccccc4)C(=O)N(C)[C@@H](C)CNC(=O)C[C@H](Cc4ccc(Cl)cc4)N(C)C(=O)[C@H](COC)NC(=O)[C@@H]3C)cc2)n1C` [Compound 30, (2S,5S,8S,13S,16R)-16-benzyl-1-(4-chloro-2-(4-(1-methyl-2-(pent-1-yn-1-yl)-1H-imidazol-5-yl)phenoxy)benzyl)-8-(4-chlorobenzyl)-5-(methoxymethyl)-2,7,13,14-tetramethyl-1,4,7,11,14-pentaazacyclooctadecane-3,6,10,15,18-pentaone] the same measures were 85.21% and 59.8 nM.
For `COC[C@@H]1NC(=O)[C@H](C)N(Cc2ccc(Cl)cc2Oc2ccc(-c3cnc(CN(C)C)n3C)cc2)C(=O)C[C@H](Cn2cccn2)C(=O)N(C)[C@H]2CCCC[C@@H]2NC(=O)C[C@H](Cc2ccc(Cl)cc2)N(C)C1=O` [Compound 2, (4S,7S,10S,14R,16aS,20aS)-14-((1H-pyrazol-1-yl)methyl)-11-(4-chloro-2-(4-(2-((dimethylamino)methyl)-1-methyl-1H-imidazol-5-yl)phenoxy)benzyl)-4-(4-chlorobenzyl)-7-(methoxymethyl)-5,10,16-trimethylhexadecahydrobenzo[l][1,4,7,11,14]pentaazacyclooctadecine-2,6,9,12,15(3H)-pentaone] the same measures were 95.16% and 172 nM.
Take `COC[C@@H]1NC(=O)[C@H](C)N(Cc2ccc(Cl)cc2Oc2ccc(-c3cnc(OC)nc3)cc2)C(=O)C[C@@H](Cc2ccccc2)C(=O)N(C)[C@@H](C)CNC(=O)C[C@H](Cc2ccc(Cl)cc2)N(C)C1=O` [Compound 69, (2S,5S,8S,13S,16R)-16-benzyl-1-(4-chloro-2-(4-(2-methoxypyrimidin-5-yl)phenoxy)benzyl)-8-(4-chlorobenzyl)-5-(methoxymethyl)-2,7,13,14-tetramethyl-1,4,7,11,14-pentaazacyclooctadecane-3,6,10,15,18-pentaone]: the Max % inhibition is recorded as 64.09% and the IC50 amounted to 43 nM.
As for `COC[C@@H]1NC(=O)[C@H](CCC(=O)O)N(Cc2ccc(Cl)cc2Oc2ccc(-c3cnc(CN(C)C)n3C)cc2)C(=O)C[C@@H](Cc2ccccc2)C(=O)N(C)[C@H]2CCCC[C@@H]2NC(=O)C[C@H](Cc2ccc(Cl)cc2)N(C)C1=O` [Compound 245, 3-((4S,7S,10S,14R,16aS,20aS)-14-benzyl-11-(4-chloro-2-(4-(2-((dimethylamino)methyl)-1-methyl-1H-imidazol-5-yl)phenoxy)benzyl)-4-(4-chlorobenzyl)-7-(methoxymethyl)-5,16-dimethyl-2,6,9,12,15-pentaoxodocosahydrobenzo[l][1,4,7,11,14]pentaazacyclooctadecin-10-yl)propanoic acid], the Max % inhibition is on record as 104.03% and the IC50 was determined as 1.3 nM.
Consider `C[C@@H]1CC(=O)N(Cc2ccc(Cl)cc2Oc2ccc(-c3cnc(CN(C)C)n3C)cc2)[C@@H](C)C(=O)N[C@@H](CO)C(=O)N(C)[C@@H](Cc2ccc(Cl)cc2)CC(=O)NC[C@H](C)N(C)C1=O` [Compound 193, (2S,5S,8S,13S,16R)-1-(4-chloro-2-(4-(2-((dimethylamino)methyl)-1-methyl-1H-imidazol-5-yl)phenoxy)benzyl)-8-(4-chlorobenzyl)-5-(hydroxymethyl)-2,7,13,14,16-pentamethyl-1,4,7,11,14-pentaazacyclooctadecane-3,6,10,15,18-pentaone], for which the Max % inhibition came to 84.54% and the IC50 amounted to 6.1 nM.
For `COC[C@@H]1NC(=O)[C@H](C)N(Cc2ccc(Cl)cc2Oc2ccc(-n3cnc(C(=O)NC(C)C)c3C)cc2)C(=O)C[C@@H](Cc2ccccc2)C(=O)N(C)[C@@H](C)CNC(=O)C[C@H](Cc2ccc(Cl)cc2)N(C)C1=O` [Compound 163, 1-(4-(2-(((2S,5S,8S,13S,16R)-16-benzyl-8-(4-chlorobenzyl)-5-(methoxymethyl)-2,7,13,14-tetramethyl-3,6,10,15,18-pentaoxo-1,4,7,11,14-pentaazacyclooctadecan-1-yl)methyl)-5-chlorophenoxy)phenyl)-N-isopropyl-5-methyl-1H-imidazole-4-carboxamide] the same measures were 84.60% and 135 nM.
For `COC[C@@H]1NC(=O)[C@H](C)N(Cc2ccc(Cl)cc2Oc2ccc(-c3cnc4c(CN5CCCC5)cccn34)cc2)C(=O)C[C@@H](Cc2ccccc2)C(=O)N(C)[C@@H](C)CNC(=O)C[C@H](Cc2ccc(Cl)cc2)N(C)C1=O` [Compound 302] the same measures were 54.00% and 3.5 nM.
